# Results reported in ChEMBL document CHEMBL1671719, “Inhibition of antibiotic-resistant Staphylococcus aureus by the broad-spectrum dihydrofolate reductase inhibitor RAB1” (Antimicrob Agents Chemother, 2010).
# Where “and” joins values, the source holds several entries; their conditions need not be identical. Equal values may be shown once.
# What was measured:
# [1] = tested on: Staphylococcus aureus; experiment: Ratio of Ki for TMP-resistant Staphylococcus aureus DHFR to Ki for wild type Staphylococcus aureus DHFR
# [2] = biological target: Dihydrofolate reductase (Staphylococcus aureus, UniProt P0A017); experiment: Inhibition of Staphylococcus aureus wild type recombinant DHFR by MTS assay
# [3] = biological target: Dihydrofolate reductase (Staphylococcus aureus, UniProt P0A017, F99Y); experiment: Inhibition of Staphylococcus aureus DHFR F98Y mutant by MTS assay
# [4] = tested on: Staphylococcus aureus; experiment: Antimicrobial activity against methicillin-resistant Staphylococcus aureus; type: functional
# [5] = tested on: Staphylococcus aureus; experiment: microbe, parasite or virus in culture; conditions: isolate NRS123
# [6] = tested on: Staphylococcus aureus; experiment: Antimicrobial activity against vancomycin-resistant Staphylococcus aureus VRS2 by broth microdilution method; type: functional
# [7] = tested on: Staphylococcus aureus; experiment: Antimicrobial activity against methicillin-resistant Staphylococcus aureus isolate NRS1 by broth microdilution method; type: functional
# [8] = tested on: Staphylococcus aureus; experiment: Antimicrobial activity against methicillin-resistant Staphylococcus aureus isolate NRS70 by broth microdilution method; type: functional
# [9] = tested on: Enterococcus faecalis; experiment: Antimicrobial activity against vancomycin-resistant Enterococcus faecalis ATCC 700802 by broth microdilution method; type: functional
# [10] = tested on: Yersinia pestis; experiment: Antimicrobial activity against Yersinia pestis CO92 by broth microdilution method; type: functional
# [11] = tested on: Staphylococcus aureus; experiment: microbe, parasite or virus in culture; conditions: isolate NRS71
# [12] = tested on: Bacillus anthracis; experiment: Antimicrobial activity against Bacillus anthracis Ames by broth microdilution method; type: functional
# [13] = tested on: Francisella tularensis; experiment: Antimicrobial activity against Francisella tularensis Schu4 by broth microdilution method; type: functional
# [14] = tested on: Staphylococcus aureus; experiment: Antimicrobial activity against vancomycin-resistant Staphylococcus aureus VRS3 by broth microdilution method; type: functional
# [15] = tested on: Staphylococcus aureus; experiment: Antimicrobial activity against vancomycin-resistant Staphylococcus aureus VRS1 by broth microdilution method; type: functional
# [16] = tested on: Brucella abortus; experiment: Antimicrobial activity against Brucella abortus 2308 by broth microdilution method; type: functional
Molecule,MIC [5] [µg/mL],MIC [6] [µg/mL],MIC [7] [µg/mL],MIC [8] [µg/mL],MIC [11] [µg/mL],MIC [14] [µg/mL],MIC [15] [µg/mL],further results
CCC[C@H]1c2ccccc2C=NN1C(=O)/C=C/c1cc(Cc2cnc(N)nc2N)cc(OC)c1OC,–,–,–,–,–,–,–,Ratio IC50 [1]: 0.6; Ratio Ki [1]: 0.2; IC50 [2]: 2.9 nM and 12.5 nM; Ki [2]: 0.9 nM; Ki [3]: 0.2 nM
COc1cc(Cc2cnc(N)nc2N)c2c(c1OC)OC(C1CC1)C=C2 (centres undefined),–,–,–,–,–,–,–,MIC [4]: ≤ 0.06 µg/mL
COc1ncc([C@H]2c3ccccc3C=NN2C(=O)/C=C/c2cc(Cc3cnc(N)nc3N)cc(OC)c2OC)cn1,–,–,–,–,–,–,–,Ratio IC50 [1]: 5.7; Ratio Ki [1]: 1.9; IC50 [2]: 11.5 nM and 3.9 nM; Ki [2]: 3.5 nM; IC50 [3]: 65.4 nM; Ki [3]: 6.5 nM
COc1cc(-c2ccccc2)cc([C@@H](C)C#Cc2c(C)nc(N)nc2N)c1,–,–,–,–,–,–,–,IC50 [2]: 61 nM; IC50 [3]: 190 nM
CCCC1c2ccccc2C=NN1C(=O)/C=C/c1cc(Cc2cnc(N)nc2N)cc(O)c1OC (centres undefined),≤ 0.0625,4,≤ 0.0625,≤ 0.0625,≤ 0.0625,≤ 0.125,8,Ratio IC50 [1]: 0.9; Ratio Ki [1]: 0.3; IC50 [2]: 9.4 nM and 5.2 nM; Ki [2]: 2.8 nM; MIC [9]: 0.03 µg/mL; MIC [10]: 4 µg/mL; MIC [12]: 1 µg/mL; MIC [13]: 1 µg/mL; IC50 [3]: 8.8 nM and 22.6 nM; Ki [3]: 0.9 nM; MIC [16]: 16 µg/mL
COc1cc([C@H](C)C#Cc2c(C)nc(N)nc2N)ccc1-c1c(C)cccc1C,–,–,–,–,–,–,–,IC50 [2]: 61 nM; IC50 [3]: 190 nM
O=C(O)c1cn(C2CC2)c2cc(N3CCNCC3)c(F)cc2c1=O [CIPROFLOXACIN],0.5,> 16,–,0.5,> 16,> 16,> 16,–
CCC[C@@H]1C[C@@H](C(=O)N[C@@H]([C@H]2O[C@H](SC)[C@H](O)[C@@H](O)[C@H]2O)[C@H](C)Cl)N(C)C1 [CLINDAMYCIN],0.12,> 4,–,> 4,> 4,> 4,> 4,–
Nc1ccnc(N)n1 [DIAMINOPYRIMIDINE],0.5,–,2,–,–,–,–,–
CC[C@H]1OC(=O)[C@H](C)[C@@H](O[C@H]2C[C@@](C)(OC)[C@@H](O)[C@H](C)O2)[C@H](C)[C@@H](O[C@@H]2O[C@H](C)C[C@H](N(C)C)[C@H]2O)[C@](C)(O)C[C@@H](C)C(=O)[C@H](C)[C@@H](O)[C@]1(C)O [ERYTHROMYCIN],0.5,> 8,–,> 8,> 8,> 8,> 8,–
CC(=O)NC[C@H]1CN(c2ccc(N3CCOCC3)c(F)c2)C(=O)O1 [LINEZOLID],–,1,–,1,1,–,–,–
Cc1onc(-c2ccccc2)c1C(=O)N[C@@H]1C(=O)N2[C@@H]1SC(C)(C)[C@@H]2C(=O)O [OXACILLIN],> 16,> 16,> 32,> 16,> 16,> 16,> 16,–
CC1(C)S[C@@H]2[C@H](NC(=O)Cc3ccccc3)C(=O)N2[C@H]1C(=O)O [PENICILLIN G],> 2,> 2,> 8,> 2,> 2,> 2,> 2,–
CN(C)[C@@H]1C(O)=C(C(N)=O)C(=O)[C@@]2(O)C(O)=C3C(=O)c4c(O)cccc4[C@@](C)(O)[C@H]3C[C@@H]12 [TETRACYCLINE],32,–,32,–,–,–,–,–
COc1cc(Cc2cnc(N)nc2N)cc(OC)c1OC [TRIMETHOPRIM],2,> 256,2,2,2,2,> 256,MIC [9]: ≤ 1 µg/mL; MIC [10]: ≤ 1 µg/mL; MIC [12]: > 256 µg/mL; MIC [13]: 16 µg/mL; MIC [16]: 32 µg/mL
CN[C@H](CC(C)C)C(=O)N[C@H]1C(=O)N[C@@H](CC(N)=O)C(=O)N[C@H]2C(=O)N[C@H]3C(=O)N[C@H](C(=O)N[C@H](C(=O)O)c4cc(O)cc(O)c4-c4cc3ccc4O)[C@H](O)c3ccc(c(Cl)c3)Oc3cc2cc(c3O[C@@H]2O[C@H](CO)[C@@H](O)[C@H](O)[C@H]2O[C@H]2C[C@](C)(N)[C@H](O)[C@H](C)O2)Oc2ccc(cc2Cl)[C@H]1O [VANCOMYCIN],–,64,8,–,–,> 32,> 256,–
GENTAMICIN,–,> 16,> 16,1,–,> 16,> 16,–
